The results in this text go back to patent US10844038B2, “1,2-dithiolane compounds useful in neuroprotection, autoimmune and cancer diseases and conditions” (SABILA BIOSCIENCES LLC, priority 2016, dated 2020).

What is called Kd is the equilibrium constant for the complex coming apart. Usually inhibition stands for the share of the control response that was lost under treatment.

Test [1] addresses MEK5 (Homo sapiens (Human), UniProt Q13163). The test can be described thus: KINOMEscan competition binding assay (Kd). The note with it: Table 9, read-out: Kd Values Against Representative MEK5 Kinase: MEK5. The method, then: (§1) KINOMEscan™ is based on a competition binding assay that quantitatively measures the ability of a test compound of the invention to compete with an immobilized, active-site directed ligand. The Kinase assay is performed by combining three components: DNA-tagged kinase; immobilized ligand; and a test compound. The ability of the test compound to compete with the immobilized ligand is measured via quantitative PCR of the DNA tag.
(§2) For most assays, kinase-tagged T7 phage strains were prepared in an E. coli host derived from the BL21 strain. E. coli were grown to log-phase and infected with T7 phage and incubated with shaking at 32° C. until lysis. The lysates were centrifuged and filtered to remove cell debris. The remaining kinases were produced in HEK-293 cells and subsequently tagged with DNA for qPCR detection. Streptavidin-coated magnetic beads were treated with biotinylated small molecule ligands for 30 minutes at room temperature to generate affinity resins for kinase assays. The liganded beads were blocked with excess biotin and washed with blocking buffer (SeaBlock (Pierce), 1% BSA, 0.05% Tween 20, 1 mM DTT) to remove unbound ligand and to reduce nonspecific binding. […] All reactions were performed in polystyrene 96-well plates in a final volume of 0.135 ml. […] The kinase concentration in the eluates was measured by qPCR.

For test [2], the target named is mTor/FRAP1 (Homo sapiens (Human), UniProt P42345). The test can be described thus: Radioisotope filter binding assay. The note with it: read-out: IC50 Activity Levels Against Various PI3K and mTor Kinases: mTor/FRAP1. In kind it is biochemical. The procedure: (§3) 3. Radioisotope Filter Binding Assay:
(§4) In this assay format, it directly detects the true product without the use of modified substrates or coupling enzymes (Uitdehaag, J. C., et al. Br. J. Pharmacol. 2012, 166, 858-876; Hastie, C. J., et al. Nat. Protoc. 2006, 1, 968-971) according to equation 1. Substrate+[γ−^33P]−ATP→^33P-Substrate+ADP eq 1
(§5) The protocol calls for test compound of the invention to be incubated with kinase, substrate, cofactors, and radio-isotope-labeled ATP (^33P-gamma-ATP). The reaction mixtures are then spotted onto filter papers which bind the radioisotope labeled catalytic product. Unreacted phosphate is removed via washing. The reagents used include base reaction buffer; 20 mM Hepes (pH 7.5), 10 mM MgCl2, 1 mM EGTA, 0.02% Brij35, 0.02 mg/ml BSA, 0.1 mM Na3VO4, 2 mM DTT, 1% DMSO. The reaction procedure include the following steps: (1) prepare indicated substrate in freshly prepared base reaction buffer, (2) deliver any required cofactors to the substrate solution above, (3) deliver indicated kinase into the substrate solution and gently mix, (4) deliver compounds in DMSO into the kinase reaction mixture by Acoustic technology (Echo550; nanoliter range), incubate for 20 minutes at room temperature, (5) deliver ^33P-ATP (specific activity 10 μCi/μL) into the reaction mixture to initiate the reaction, (6) incubate kinase reaction for 2 hours at room temperature, (7) reactions are spotted onto P81 ion exchange paper, (8) detect kinase activity by filter-binding method.

Test [3] addresses T1, FYN (Homo sapiens (Human), UniProt P06241). The test can be described thus: Radioisotope filter binding assay. In kind it is biochemical. The note with it: read-out: IC50 Activity Levels Against SRC Family Kinases: FYN. The method, then: as §3, §4, §5
For test [4], the target named is BTK (Homo sapiens (Human), UniProt Q06187). Briefly: KINOMEscan competition binding assay (Kd). Particulars: read-out: Kd Values Against Representative TEC Family Kinases: BTK. The procedure: as §1, §2
Chain of BTK (Q06187 whole entry): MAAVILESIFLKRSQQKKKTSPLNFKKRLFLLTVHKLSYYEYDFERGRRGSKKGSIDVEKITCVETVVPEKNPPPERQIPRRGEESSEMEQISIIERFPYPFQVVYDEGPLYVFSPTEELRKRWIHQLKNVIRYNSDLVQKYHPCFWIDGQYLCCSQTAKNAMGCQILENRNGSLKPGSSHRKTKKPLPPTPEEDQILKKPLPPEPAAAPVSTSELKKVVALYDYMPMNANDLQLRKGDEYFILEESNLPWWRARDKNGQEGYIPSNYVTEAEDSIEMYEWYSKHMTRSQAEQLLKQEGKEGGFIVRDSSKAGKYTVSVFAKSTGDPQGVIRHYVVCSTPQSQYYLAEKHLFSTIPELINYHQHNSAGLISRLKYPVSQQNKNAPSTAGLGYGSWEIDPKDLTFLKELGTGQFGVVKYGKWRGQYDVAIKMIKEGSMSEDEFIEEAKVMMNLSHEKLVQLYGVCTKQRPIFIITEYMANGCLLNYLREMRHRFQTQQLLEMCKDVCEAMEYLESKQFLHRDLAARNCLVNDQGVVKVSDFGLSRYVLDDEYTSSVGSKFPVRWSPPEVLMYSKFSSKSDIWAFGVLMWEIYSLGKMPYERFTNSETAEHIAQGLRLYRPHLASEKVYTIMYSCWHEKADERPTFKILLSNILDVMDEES
The target in test [5] is mTOR (Homo sapiens (Human), UniProt P42345). The test can be described thus: KINOMEscan competition binding assay (Kd). The note with it: read-out: Kd Values Against mTOR Kinase: mTOR. The procedure:
as §1, §2

Test [6] has as its target CSK (Homo sapiens (Human), UniProt P41240). The test can be described thus: Rabbit reticulocyte lysate assay (KinaseSeeker competition binding). Particulars: read-out: % Inhibition Against SRC Family Kinases: CSK. The method, then:
(§6) 1. Rabbit Reticulocyte Lysate Assay Design:
(§7) KinaseSeeker is a homogeneous competition binding assay where the displacement of an active site dependent probe by an inhibitor is measured by a change in luminescence signal. Luminescence readout translates into a highly sensitive and robust assay with low background and minimal interference from test compounds.
(§8) 10 mM stock solutions of test compounds were serially diluted in DMSO to make assay stocks. Prior to initiating IC50 determinations, the test compounds were evaluated for false positive against split-luciferase.
(§9) Each test compound was screened in duplicate against target kinase at 7 different concentrations. For kinase assays, Cfluc-kinase was translated along with Fos-Nfluc using a cell-free system (rabbit reticulocyte lysate) at 30° C. for 90 min. 24 uL aliquot of this lysate containing either 1 uL of DMSO (for no-inhibitor control) or compound solution in DMSO was incubated for 30 minutes at room temperature followed by 1 hour in presence of a kinase specific probe. 80 uL of luciferin assay reagent was added to each solution and luminescence was immediately measured on a luminometer.
(§10) The % Inhibition and % Activity Remaining was calculated using the following equation: % Inhibition=[(ALUControl−ALUSample)/ALUControl]×100 % Activity Remaining=100−% Inhibition
(§11) The % Activity was plotted against compound concentration and the IC50 was determined for each compound using a 7-point curve (Jester, B. W.; et. al. J. Am. Chem. Soc. 2010, 132, 11727-11735. Jester, B. W., et. al. J. Med. Chem. 2012, 55, 1526-1537). Biological activity of representative compounds of the disclosure are described in Table 5.

Test [7] addresses T1, FYN. The description is as above. Particulars: read-out: % Inhibition Against SRC Family Kinases: FYN. The method, then: as §6, §7, §8, §9, §10, §11
Test [8] concerns the target YES1 (Homo sapiens (Human), UniProt P07947). The test is described as above. The note with it: at 1 μM, read-out: % Inhibition Against SRC Family Kinases: YES1. The procedure:
as §6, §7, §8, §9, §10, §11

Test [9] addresses SRC (Homo sapiens (Human), UniProt P12931). The test is described as above. The note with it: at 1 μM, read-out: % Inhibition Against SRC Family Kinases: SRC. The method, then: as §6, §7, §8, §9, §10, §11
Test [10] has as its target FGR (Homo sapiens (Human), UniProt P09769). The test is described as above. The note with it: at 1 μM, read-out: % Inhibition Against SRC Family Kinases: FGR. The method, then:
as §6, §7, §8, §9, §10, §11

For test [11], the target named is HCK (Homo sapiens (Human), UniProt P08631). The description is as above. Particulars: at 1 μM, read-out: % Inhibition Against SRC Family Kinases: HCK. The method, then: as §6, §7, §8, §9, §10, §11
Chain of HCK (P08631 whole entry): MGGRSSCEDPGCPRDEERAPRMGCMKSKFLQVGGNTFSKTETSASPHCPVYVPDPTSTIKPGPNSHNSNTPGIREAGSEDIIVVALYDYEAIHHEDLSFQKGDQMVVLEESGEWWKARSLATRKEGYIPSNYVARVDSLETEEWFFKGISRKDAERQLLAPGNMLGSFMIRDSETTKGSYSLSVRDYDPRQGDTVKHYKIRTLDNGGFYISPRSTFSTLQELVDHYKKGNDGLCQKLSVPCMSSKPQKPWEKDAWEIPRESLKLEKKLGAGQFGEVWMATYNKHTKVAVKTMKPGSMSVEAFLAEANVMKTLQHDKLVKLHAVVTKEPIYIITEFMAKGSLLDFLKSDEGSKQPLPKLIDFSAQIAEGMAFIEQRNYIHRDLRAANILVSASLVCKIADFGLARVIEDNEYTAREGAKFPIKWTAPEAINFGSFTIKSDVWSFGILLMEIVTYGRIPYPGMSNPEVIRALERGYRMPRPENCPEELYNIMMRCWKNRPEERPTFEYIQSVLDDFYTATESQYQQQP
In test [12] the target is LYN (Homo sapiens (Human), UniProt P07948). The test is described as above. Particulars: read-out: % Inhibition Against SRC Family Kinases: LYN. The method, then:
as §6, §7, §8, §9, §10, §11

Test [13] has as its target BRAF (Homo sapiens (Human), UniProt P15056). The test can be described thus: KINOMEscan competition binding assay (Kd). The note with it: read-out: Kd Values Against MAPK Pathway Kinases: BRAF. The procedure: as §1, §2
Test [14] deals with Bruton Tyrosine Kinase (BTK) (Homo sapiens (Human), UniProt Q06187). The test can be described thus: Rabbit reticulocyte lysate assay (KinaseSeeker competition binding). Particulars: read-out: IC50 Activity Levels Against Bruton Tyrosine Kinase: BTK. The procedure:
as §6, §7, §8, §9, §10, §11

T1 sequence (P06241 whole entry): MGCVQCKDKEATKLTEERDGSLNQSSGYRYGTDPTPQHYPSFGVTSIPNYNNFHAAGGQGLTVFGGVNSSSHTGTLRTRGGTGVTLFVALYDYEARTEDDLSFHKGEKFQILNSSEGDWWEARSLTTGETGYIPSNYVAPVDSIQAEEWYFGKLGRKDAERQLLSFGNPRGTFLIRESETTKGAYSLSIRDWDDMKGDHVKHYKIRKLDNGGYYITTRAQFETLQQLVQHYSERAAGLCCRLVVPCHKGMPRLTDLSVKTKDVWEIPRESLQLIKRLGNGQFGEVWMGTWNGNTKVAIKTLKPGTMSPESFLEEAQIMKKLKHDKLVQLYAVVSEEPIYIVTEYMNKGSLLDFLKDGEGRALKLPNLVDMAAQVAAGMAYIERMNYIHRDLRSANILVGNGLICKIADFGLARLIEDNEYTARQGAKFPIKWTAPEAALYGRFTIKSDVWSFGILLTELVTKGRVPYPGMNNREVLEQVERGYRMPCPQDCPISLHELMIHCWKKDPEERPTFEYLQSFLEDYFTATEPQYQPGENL
Chain of MEK5 (Q13163 whole entry): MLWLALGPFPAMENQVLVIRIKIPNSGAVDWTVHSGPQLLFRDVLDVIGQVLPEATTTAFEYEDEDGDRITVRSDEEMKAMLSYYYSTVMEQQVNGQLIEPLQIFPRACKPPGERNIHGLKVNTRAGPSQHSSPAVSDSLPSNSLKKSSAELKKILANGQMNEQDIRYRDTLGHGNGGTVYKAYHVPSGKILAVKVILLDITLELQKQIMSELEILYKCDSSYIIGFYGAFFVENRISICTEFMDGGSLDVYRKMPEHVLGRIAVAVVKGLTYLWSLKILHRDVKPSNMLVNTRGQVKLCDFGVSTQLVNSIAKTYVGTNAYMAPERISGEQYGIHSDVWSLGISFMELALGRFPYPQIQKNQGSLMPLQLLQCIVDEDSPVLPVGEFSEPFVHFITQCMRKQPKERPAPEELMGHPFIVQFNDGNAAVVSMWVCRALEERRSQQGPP
Chain of LYN (P07948 whole entry): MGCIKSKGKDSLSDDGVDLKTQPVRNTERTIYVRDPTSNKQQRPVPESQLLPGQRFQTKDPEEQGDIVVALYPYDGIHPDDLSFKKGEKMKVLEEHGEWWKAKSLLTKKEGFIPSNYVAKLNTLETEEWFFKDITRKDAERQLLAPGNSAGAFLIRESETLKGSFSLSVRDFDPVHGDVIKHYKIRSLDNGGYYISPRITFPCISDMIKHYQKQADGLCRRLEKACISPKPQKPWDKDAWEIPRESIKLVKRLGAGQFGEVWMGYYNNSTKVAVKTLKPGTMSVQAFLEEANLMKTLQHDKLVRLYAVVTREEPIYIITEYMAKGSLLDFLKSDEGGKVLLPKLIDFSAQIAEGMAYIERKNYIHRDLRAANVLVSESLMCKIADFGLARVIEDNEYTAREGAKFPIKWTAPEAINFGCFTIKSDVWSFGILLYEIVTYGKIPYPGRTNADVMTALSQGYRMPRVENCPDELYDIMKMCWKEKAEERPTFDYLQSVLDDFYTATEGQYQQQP
Chain of SRC (P12931 whole entry, looked up): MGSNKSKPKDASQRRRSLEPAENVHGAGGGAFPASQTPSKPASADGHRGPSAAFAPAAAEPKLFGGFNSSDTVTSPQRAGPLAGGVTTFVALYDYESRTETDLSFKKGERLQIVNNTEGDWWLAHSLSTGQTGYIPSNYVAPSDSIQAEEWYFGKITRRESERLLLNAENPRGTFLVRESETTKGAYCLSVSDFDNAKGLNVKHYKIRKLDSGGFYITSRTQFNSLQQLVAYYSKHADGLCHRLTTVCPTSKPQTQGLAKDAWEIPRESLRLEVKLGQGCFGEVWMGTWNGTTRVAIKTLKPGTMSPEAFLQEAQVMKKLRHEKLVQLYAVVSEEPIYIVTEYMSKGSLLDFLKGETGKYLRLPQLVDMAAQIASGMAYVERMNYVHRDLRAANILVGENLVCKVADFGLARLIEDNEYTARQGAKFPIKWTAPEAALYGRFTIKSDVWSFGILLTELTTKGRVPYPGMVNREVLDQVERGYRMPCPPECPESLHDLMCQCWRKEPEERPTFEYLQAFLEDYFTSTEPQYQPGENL
Chain of YES1 (P07947 whole entry): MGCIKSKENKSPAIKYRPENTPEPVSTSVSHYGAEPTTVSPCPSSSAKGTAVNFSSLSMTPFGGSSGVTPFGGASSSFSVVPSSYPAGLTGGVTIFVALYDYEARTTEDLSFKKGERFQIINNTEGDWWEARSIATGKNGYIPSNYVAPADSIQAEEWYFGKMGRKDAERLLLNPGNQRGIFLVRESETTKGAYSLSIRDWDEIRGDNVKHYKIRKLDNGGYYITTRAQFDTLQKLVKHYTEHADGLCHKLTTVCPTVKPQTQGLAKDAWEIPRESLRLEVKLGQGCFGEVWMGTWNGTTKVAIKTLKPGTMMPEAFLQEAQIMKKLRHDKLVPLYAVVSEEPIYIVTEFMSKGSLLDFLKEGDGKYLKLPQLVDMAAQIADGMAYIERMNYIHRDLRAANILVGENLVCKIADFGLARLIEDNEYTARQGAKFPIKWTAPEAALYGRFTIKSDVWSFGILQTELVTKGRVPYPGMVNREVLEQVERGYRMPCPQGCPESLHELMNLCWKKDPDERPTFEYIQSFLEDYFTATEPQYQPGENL
Chain of BRAF (P15056 whole entry): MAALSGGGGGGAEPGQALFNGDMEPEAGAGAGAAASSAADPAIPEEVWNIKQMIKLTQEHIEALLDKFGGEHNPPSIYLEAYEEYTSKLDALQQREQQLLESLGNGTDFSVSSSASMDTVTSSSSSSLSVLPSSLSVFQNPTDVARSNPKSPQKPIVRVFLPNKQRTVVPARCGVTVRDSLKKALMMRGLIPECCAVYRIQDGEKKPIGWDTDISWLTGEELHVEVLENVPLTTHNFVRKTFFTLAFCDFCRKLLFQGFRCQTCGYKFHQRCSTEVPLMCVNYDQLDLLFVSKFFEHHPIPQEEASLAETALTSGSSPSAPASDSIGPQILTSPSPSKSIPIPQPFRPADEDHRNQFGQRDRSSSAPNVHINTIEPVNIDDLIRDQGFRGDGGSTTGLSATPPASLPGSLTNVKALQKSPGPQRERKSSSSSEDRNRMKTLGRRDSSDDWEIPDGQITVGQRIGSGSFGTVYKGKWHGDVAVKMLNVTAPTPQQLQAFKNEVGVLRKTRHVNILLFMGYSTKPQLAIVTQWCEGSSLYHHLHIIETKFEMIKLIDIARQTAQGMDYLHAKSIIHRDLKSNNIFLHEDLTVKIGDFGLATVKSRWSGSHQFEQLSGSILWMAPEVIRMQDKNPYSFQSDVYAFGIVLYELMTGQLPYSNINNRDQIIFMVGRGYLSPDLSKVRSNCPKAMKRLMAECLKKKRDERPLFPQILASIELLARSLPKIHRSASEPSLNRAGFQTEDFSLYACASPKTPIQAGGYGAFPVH
Chain of Bruton Tyrosine Kinase (BTK) (Q06187 whole entry): as the sequence (Q06187 whole entry) above
Chain of CSK (P41240 whole entry): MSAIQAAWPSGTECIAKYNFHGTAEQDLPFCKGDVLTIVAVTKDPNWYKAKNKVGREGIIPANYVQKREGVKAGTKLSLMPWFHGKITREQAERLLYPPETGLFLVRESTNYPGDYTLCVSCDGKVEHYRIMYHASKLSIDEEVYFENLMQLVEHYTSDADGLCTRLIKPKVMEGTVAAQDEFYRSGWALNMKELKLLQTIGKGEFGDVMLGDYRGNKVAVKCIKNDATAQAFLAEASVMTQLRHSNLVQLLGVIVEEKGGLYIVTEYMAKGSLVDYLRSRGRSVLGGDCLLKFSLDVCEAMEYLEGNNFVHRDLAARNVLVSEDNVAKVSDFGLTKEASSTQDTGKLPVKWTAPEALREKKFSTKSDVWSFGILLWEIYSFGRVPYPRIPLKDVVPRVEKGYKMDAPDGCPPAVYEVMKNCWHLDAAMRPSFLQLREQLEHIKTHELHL

Regarding `Nc1ncnc2c1c(-c1ccc(Cl)cc1)nn2C[C@@H]1SSC[C@H]1O` (relative stereo) [Example 30, trans 3-((4-Amino-3-(4-chlorophenyl)-1H-pyrazolo[3,4-d]pyrimidin-1-yl)methyl)-1,2-dithiolan-4-ol], the Kd in test [1] is less than 5 nM.
Consider `Nc1ncnc2c1c(C#Cc1ccccc1)nn2C[C@@H]1SSC[C@H]1O` (relative stereo) [Example 52, trans 3-(4-Amino-3-(phenylethynyl)-1H-pyrazolo[3,4-d]pyrimidin-1-yl)methyl-1,2-dithiolan-4-ol], for which the IC50 in [2] was 1000 to 10000 nM.
Regarding `Nc1ncnc2c1c(-c1ccc(Oc3ccccc3F)cc1)nn2CC1SSCC1O` (stereo not drawn) [Example 63, trans 3-((4-Amino-3-(4-(2-fluorophenoxyphenyl)-1H-pyrazolo[3,4-d]pyrimidin-1-yl)methyl)-1,2-dithiolan-4-ol], in test [3], the IC50 lay within 5 to 99 nM.
For `CO[C@H]1CSS[C@H]1Cn1nc(-c2ccc(Oc3ccccc3)cc2)c2c(N)ncnc21` (relative stereo) [Example 38, cis 1-((4-Methoxy-1,2-dithiolan-3-yl)methyl)-3-(4-phenoxyphenyl)-1H-pyrazolo[3,4-d]pyrimidin-4-amine], the results for the Kd in test [4] and in test [1] were 5 to 99 nM and less than 5 nM, respectively.
For the molecule `Nc1ncnc2c1c(-c1ccc(Oc3ccccc3)cc1)nn2C[C@@H]1SSC[C@@H]1O` (relative stereo) [Example 45, cis 3-((4-Amino-3-(4-phenoxyphenyl)-1H-pyrazolo[3,4-d]pyrimidin-1-yl)methyl)-1,2-dithiolan-4-ol], the Kd in [4] lay within 5 to 99 nM.
On to `COc1ccc(-c2nn(CC3SSCC3O)c3ncnc(N)c23)cc1` (stereo not drawn) [36 B.], for which the Kd in test [5] is 100 to 999 nM; in test [1], 5 to 99 nM.
In the case of `Nc1ncnc2c1c(C#Cc1ccccc1)nn2CC1SSCC1OC(=O)c1ccccc1` (stereo not drawn) [Example 51, trans 3-((4-Amino-3-(phenylethynyl)-1H-pyrazolo[3,4-d]pyrimidin-1-yl)methyl-1,2-dithiolan-4-yl benzoate], the IC50 in [2] lay in the range of 1000 to 10000 nM.
Regarding `Nc1ncnc2c1c(-c1ccc(Oc3ccccc3)cc1)nn2C[C@@H]1SSC[C@@H]1OCc1ccccc1` (relative stereo) [Example 40, cis 1-((4-(Benzyloxy)-1,2-dithiolan-3-yl)methyl)-3-(4-phenoxyphenyl)-1H-pyrazolo[3,4-d]pyrimidin-4-amine], the IC50 in test [3] lay in the range of 1000 to 10000 nM. Besides, the dissociation constant (Kd) in test [4] was in the range of 100 to 999 nM; in test [1], 5 to 99 nM.
For `Nc1ncnc2c1c(-c1ccc(Oc3ccccc3)cc1)nn2C[C@@H]1SSC[C@H]1OCc1ccccc1` (relative stereo) [Example 39, trans 1-((4-(Benzyloxy)-1,2-dithiolan-3-yl)methyl)-3-(4-phenoxyphenyl)-1H-pyrazolo[3,4-d]pyrimidin-4-amine], the Kd lay within 1000 to 10000 nM in test [4] and 5 to 99 nM in [1].
As for `Nc1ncnc2c1c(-c1ccc(Oc3ccccc3)cc1)nn2C[C@@H]1SSC[C@H]1O` [Example 43 A., (3S,4R)-3-((4-Amino-3-(4-phenoxyphenyl)-1H-pyrazolo[3,4-d]pyrimidin-1-yl)methyl)-1,2-dithiolan-4-ol], the inhibition at 1 µM in test [6] came out at 50%; in test [7] it was 33%; in [8] it was 90%; in test [9], 49%; in test [10], 84%; in test [11] it was 73%. For the same molecule, the inhibition at 1 µM in [12] was determined as 33%.
On to `CO[C@@H]1CSS[C@H]1Cn1nc(-c2ccc(Oc3ccccc3)cc2)c2c(N)ncnc21` (relative stereo) [Example 37, trans 1-((4-Methoxy-1,2-dithiolan-3-yl)methyl)-3-(4-phenoxyphenyl)-1H-pyrazolo[3,4-d]pyrimidin-4-amine], for which the IC50 in test [3] was in the range of 5 to 99 nM. The figures for the Kd in [4], in [5] and in [1] were 5 to 99 nM, 1000 to 10000 nM and less than 5 nM, respectively.
In the case of `Nc1ncnc2c1c(-c1ccc(Oc3ccccc3)cc1)nn2C[C@@H]1SSC[C@H]1O` (relative stereo) [Example 42, trans 3-((4-Amino-3-(4-phenoxyphenyl)-1H-pyrazolo[3,4-d]pyrimidin-1-yl)methyl)-1,2-dithiolan-4-ol], the Kd in test [13] is 1000 to 10000 nM; in test [4], 5 to 99 nM. Moreover, in [14], the IC50 is 100 to 999 nM.
`Nc1ncnc2c1c(-c1ccccc1)nn2C[C@@H]1SSC[C@H]1O` (relative stereo) [Example 28, trans 3-((4-Amino-3-phenyl-1H-pyrazolo[3,4-d]pyrimidin-1-yl)methyl)-1,2-dithiolan-4-ol]: in [1], the dissociation constant Kd was 5 to 99 nM.
With `Nc1ncnc2c1c(-c1ccc(Oc3ccccc3F)cc1)nn2CC1SSCC1OC(=O)c1ccccc1` (stereo not drawn) [Example 62, trans 3-((4-Amino-3-(4-(2-fluorophenoxyphenyl)-1H-pyrazolo[3,4-d]pyrimidin-1-yl)methyl)-1,2-dithiolan-4-yl benzoate], in test [3], the IC50 was 5 to 99 nM.
